Data published in publication PMC12592418, “Therapeutic potential of red bean (phaseolus vulgaris) peptides: anticancer, antihypertension, and antioxidant activities” (Scientific Reports, 2025).
No end group written: not given here.

Columns and labels:
[1] = system: angiotensin-converting enzyme (ACE); assay: ACE inhibitory activity assay (HHL substrate); format: biochemical; conditions: peptide 100 µg/ml, ACE 0.2 U/mL, 5 mM HHL, phosphate buffer pH 6.8, 37 °C, mean ± SD, n = 3; SD
Protocol: The method utilized here is a spectrophotometric method based on the commonly used method introduced by Cushman and Cheung (1971)[45]. The 5 ul of sample was preincubated with 45 ul of ACE enzyme (0.2 U/mL) in 100 mM Phosphate buffer (pH 6.8) and incubated for 10 min at 37 °C. Enzyme activity was assayed by monitoring the hydrolysis of hippuryl-L-histidyl-L-leucine (HHL). After adding 50 µL of a 5 mM HHL substrate solution, the increase in absorbance at 405 nm was measured every minute for 15 min at 37 °C using a 96-well microplate reader. The initial velocity was determined from the linear portion of the curve, and the inhibitory activity was expressed as a percentage calculated using the following equation:
% inhibition = (1-(B-b)/(A-a)) x 100,
where A is an initial velocity of the control reaction with enzyme (control), a is an initial velocity of the control reaction without enzyme (control blank), B is an initial velocity of the enzyme reaction with sample and b is an initial velocity of the reaction with sample but without enzyme (sample blank).

HepG2 cells = assay: MTT cell viability assay, HepG2; format: cell-based, human; conditions: synthetic peptide 100 µg/ml, 24 h, mean ± SD, n = 3
Protocol: (§1) CaCO2, HepG2, MCF-7, NCI-H460, SiHa, SW620, and Vero cells were obtained from the American Type Culture Collection (ATCC, Manassas, VA, USA). Cells were cultured in Dulbecco’s Modified Eagle’s Medium (DMEM; PAA, Pasching, Austria), supplemented with 10% (v/v) fetal bovine serum (Gibco, South America), 10 mM HEPES (HyClone, Utah, USA), 2 mM L-glutamine, and 100 U/mL penicillin and 100 µg/mL streptomycin. Cultures were maintained at 37 °C in a humidified atmosphere containing 5% CO₂.
(§2) The anticancer activity of protein hydrolysates and synthetic peptides against CaCO2, HepG2, MCF-7, NCI-H460, SiHa, SW620, and Vero cells were evaluated using the MTT assay. Cells were seeded into 96-well plates (Nunc™, Roskilde, Denmark) at a density of 2 × 10⁴ cells per well, and allowed to adhere. Following seeding, cells were treated with 100 µg/mL of protein hydrolysates or synthetic peptides for 24 h, while untreated cells served as controls. After 24 h, 20 µL of MTT solution (5 mg/mL; Sigma, St. Louis, MO, USA) was added to each well and incubated for an additional 3 h. The supernatant was then removed, and 100 µL of DMSO was added to each well to dissolve the formazan crystals. Optical density (OD) was measured at 540 nm using a microplate reader (Rayto RT-2100 C, China). Cell viability was calculated using the equation: (OD of treated cells/OD of untreated cells) × 100.
(§3) The IC50 values were calculated from a fitted semi-log response curve, plotting cell viability percentages against concentration. These values were determined using the AAT-Bioquest IC50 calculator (https://www.aatbio.com/tools/ic50-calculator).

[2] = FRAP ferric ion-reducing antioxidant power assay; format: physicochemical; conditions: peptide 100 µg/ml, 30 min in the dark, absorbance 593 nm, mean ± SD, n = 3
Protocol: The ferric ion-reducing antioxidant power assay was analyzed according to the method by Rumpf et al.[47] with minor modifications. Briefly, the FRAP reagent was prepared from 300 mM sodium acetate (pH 3.6) and 10 mM TPTZ (2,4,6-tris (2-pyridyl)-s-triazine) in 40 mM HCl and 20 mM ferric chloride at the ratio of 10:1:1, respectively. Then, a 10 µL aliquot of the sample or standard was mixed with 190 µL of the FRAP reagent before incubating in the dark for 30 min. The absorbance was measured at 593 nm using a microplate reader (Rayto RT-2100 C, China). Ascorbic acid was used as the standard. Results were expressed as micrograms of ascorbic acid equivalent per gram (µg AAE g^−1).

CaCO2 cells = assay: MTT cell viability assay, CaCO2; format: cell-based, human; conditions: synthetic peptide 100 µg/ml, 24 h, mean ± SD, n = 3
Protocol: as §1, §2, §3

NCI-H460 cells = assay: MTT cell viability assay, NCI-H460; format: cell-based, human; conditions: synthetic peptide 100 µg/ml, 24 h, mean ± SD
Protocol: as §1, §2, §3

Vero cells = assay: MTT cell viability assay, Vero; format: cell-based, monkey; conditions: synthetic peptide 100 µg/ml, 24 h, mean ± SD, n = 3
Protocol: as §1, §2, §3

SW620 cells = assay: MTT cell viability assay, SW620; format: cell-based, human; conditions: synthetic peptide 100 µg/ml, 24 h, mean ± SD
Protocol: as §1, §2, §3

[3] = ABTS radical scavenging assay; format: physicochemical; conditions: peptide 100 µg/ml, 5 min in the dark, absorbance 750 nm, mean ± SD, n = 3
Protocol: Radical scavenging antioxidant activity was determined according to the ABTS radical scavenging activity following the method described by Re et al.[46] with slight modifications. Briefly, the solution of ABTS radical was prepared from the reaction between 7 mM ABTS (2,2-azino-bis (3-ethylbenzothiazoline-6-sulphonic acid) diammonium salt) and 2.45 mM ammonium persulphate. The resulting ABTS solution was diluted with distilled water to achieve an optical density of 0.7 at 750 nm. Then, a sample or standard of 10 µL was mixed with 190 µL of ABTS solution and incubated for 5 min in the dark. The absorbance was measured at 750 nm by a microplate reader (Rayto RT-2100 C, China). Ascorbic acid was used as the standard.

SiHa cells = assay: MTT cell viability assay, SiHa; format: cell-based, human; conditions: synthetic peptide 100 µg/ml, 24 h, mean ± SD, n = 3
Protocol: as §1, §2, §3

MCF-7 cells = assay: MTT cell viability assay, MCF-7; format: cell-based, human; conditions: synthetic peptide 100 µg/ml, 24 h, mean ± SD, n = 3
Protocol: as §1, §2, §3

[4] = DPPH radical scavenging assay; format: physicochemical; conditions: peptide 100 µg/ml, 0.1 mM DPPH, 30 min in the dark, room temperature, absorbance 517 nm, mean ± SD, n = 3
Protocol: The DPPH radical scavenging activity of the sample was evaluated following the protocol by Muangrod et al.[48] with slight modifications. Briefly, 190 µL of 0.1 mM DPPH was mixed with 10 µL of the sample or standard ascorbic acid in each well and incubated at room temperature in the dark for 30 min. The absorbance of the mixture was measured at 517 nm using a microplate reader (Rayto RT-2100 C, China). Ascorbic acid was used as the standard. Results were expressed as micrograms ascorbic acid equivalent (µg AAE g^−1).

Row | Substance | Antihypertension (%), percentage inhibition of ACE [1] | Inhibitory percentage, HepG2 (HepG2 cells) | Antioxidant, FRAP [2] | Inhibitory percentage, CaCO2 (CaCO2 cells) | Inhibitory percentage, NCI-H460 (NCI-H460 cells; n = 3, SD) | Inhibitory percentage, Vero (Vero cells) | Inhibitory percentage, SW620 (SW620 cells; n = 3, SD) | Antioxidant, ABTS [3] | Inhibitory percentage, SiHa (SiHa cells) | Inhibitory percentage, MCF-7 (MCF-7 cells) | Antioxidant, DPPH [4] | Inhibitory percentage, NCI-H460 (NCI-H460 cells; n = 3) | Inhibitory percentage, SW620 (SW620 cells; n = 3)
1 | RGSKQRQKRQW [RB-7] | 60.00±1.29% | 0% | 187.50±1.88 µg ascorbic acid equivalent | 5.73±0.02% | 1.74±0.01% | 0% | 1.47±0.01% | 507.53±13.49 µg ascorbic acid equivalent | 8.78±0.08% | 0% | 805.35±5.83 µg ascorbic acid equivalent | – | –
2 | RRLRILL [RB-6] | 46.67±0.36% | 0% | 120.46±0.07 µg ascorbic acid equivalent | 19.32±0.18% | – | 0% | – | 595.33±18.41 µg ascorbic acid equivalent | 9.72±0.02% | 0% | 584.66±4.15 µg ascorbic acid equivalent | 0% | 0%
3 | SPTPPKNVPF [RB-3] | 20.00±1.02% | 0% | 58.05±0.09 µg ascorbic acid equivalent | 7.88±0.08% | – | 0% | – | 274.73±0.27 µg ascorbic acid equivalent | 12.36±0.02% | 0% | 227.13±1.55 µg ascorbic acid equivalent | 0% | 0%
